Laboratory results as given in patent US20160363580A1, “Methods of Metabolic Kinetic Phenotyping and Uses Thereof” (The Texas A&M University System, priority 2015, published 2016).

Assay: Pulse tracer protocol (bolus L-[15N]-Phe), two compartmental model of Phe kinetics
Type: in vivo, pigs
Details: for EC Phe pool (extracellular Phe pool, Q1) / Flux of Phe between intra- and extracellular pool (F12, F21) / Frac. irr. loss (fractional irreversible loss of Phe from the intracellular pool, k02) / IC Phe pool (intracellular Phe pool, Q2) / IC Phe release (fractional intracellular release to extracellular pool, k12) / IC Phe uptake (fractional intracellular uptake from extracellular pool, k21) / Irr. loss (irreversible loss of Phe from the intracellular pool, F02): mean±SEM; for Q1 plasma pool size, mean value: SAAM II fit
Protocol: Female Yorkshire cross/domestic pigs (20-25 kg BW) were used in the experimental studies. The pigs were housed in steel pens (2 m×3 m) in a controlled housing facility with large animal cubicle at room temperature 22-24° C. with 12 hours light-dark cycle. The pigs were fed with standardized food 1 kg/day (Harlan Teklad Vegetarian Pig/Sow Grower)) and provided water ad libitum.
Animals received catheters and a jejunal stoma during a surgical procedure. During midline laparotomy, catheters were placed into the abdominal aorta for blood sampling, and in the caval vein for administering post-surgery medication and experiment related tracer infusions. A second arterial catheter was placed to monitor mean arterial blood pressure (MAP). A Swan ganz catheter (5 Fr, #132F5, Edwards life sciences, Irvine, Calif., USA) was placed via the right jugular vein to monitor mean pulmonary blood pressure (MPAP). Both preoperative and postoperative cares were standardized. During the recovery period (7-10 days) animals were accustomed to a small movable cage (0.9×0.5×0.3 m). The experiments were performed in this cage on awake animals. This study was approved by the animal experiment ethics committee of University of Arkansas Medical Sciences.
For the induction of sepsis, a live Pseudomonas aeruginosa (PM) human strain is used (IRS 12-4-4, Shriners burns institute, University of Texas Medical Branch, Galveston). Originally, this PM strain was isolated from a burnt patient at Brook Army Medical Center in San Antonio, Tex. Based on pilot virulence experiment, 10^9 Colony Forming Units per hour (CFU/hour) in a volume of 1 ml 0.9% NaCl solution was needed to obtain similar cardiovascular responses and hemodynamic variables with characteristics of severe hyperdynamic sepsis. Hemodynamics was continuously monitored to ensure that the hyperdynamic state was kept in the expected ranges for severe sepsis (body temp increase of 2-3° C., respiratory rate increased, MPAP increased but <35 mmHg, heart rate increased but <200 BPM).
The experiment started after a recovery period of 7-10 days. Four hours after the last food intake (half of the daily amount: 0.5 kg), animals were selected from the Sepsis group or the Healthy group in a randomized fashion. […] At T=0 h, sepsis was induced to the sepsis group by continuous infusion of Pseudomonas aeruginosa (PM, 10^9 CFU/ml/hour), while the Healthy group received an equal volume of 0.9% NaCl solution. Fluid resuscitation (30 ml/kg bw/hour) was also started at T=0 h and hemodynamics were monitored continuously. The results for the primed-continuous tracer protocol (PC) and the pulse tracer protocol were compared between 17 and 18 hours after the start of Pseudomonas aeruginosa. At t=18 h, the pigs were euthanized with 125 mg/k pentobarbital sodium and 16 mg phenytoin sodium (Euthanasol®).
Two stable isotopes of Phe: L-[ring-^13C6]-Phe and L-[^15N]-Phe (Cambridge Isotopes, Andover, Mass.) were used as tracers to study whole body rate of appearances of Phe (WbRa) with two tracer infusion protocols. Phe has been used to determine whole body protein breakdown. Previously studies were conducted based on the prime amount and tracer infusion rates. For the primed-continuous infusion protocol (PC), L-[ring-^13C6]-Phe was used. The prime (1.58 μmol/kg bw) and infusion (4.32 μmol/kg bw/hour) was given respectively in a volume of 2 ml/kg bw and 2 ml/kg bw/hour. It started 12 hours after the start of Pseudomonas aeruginosa, which is also 5 hours before the pulse protocol (PULSE). The L-[^15N]-Phe (26.3 μmol/kg bw in a volume 0.5 ml/kg bw) was used for the pulse protocol. All tracers are given via the central caval vein catheter.
Blood samples were taken and directly cooled on ice. The blood samples were processed within one hour. For amino acid concentration and enrichment analysis, heparinized blood was centrifuged at 4° C., 8000 G for 5 minutes. […]

N[C@@H](Cc1ccccc1)C(=O)O [Phe, phenylalanine]
k02 proportionality constant, mean value (Healthy pigs): 0.033 min⁻¹ | k12 proportionality constant, mean value (Healthy pigs): 0.051 min⁻¹ | k21 proportionality constant, mean value (Healthy pigs): 0.115 min⁻¹ | EC Phe pool (extracellular Phe pool, Q1) (Healthy pigs n=9): 44 ± 2.2 μmol/kg BW | Flux of Phe between intra- and extracellular pool (F12, F21) (Healthy pigs n=9): 5.02 ± 0.40 μmol/kg BW/min | Frac. irr. loss (fractional irreversible loss of Phe from the intracellular pool, k02) (Healthy pigs n=9): 3.33 ± 0.21 %/min | IC Phe pool (intracellular Phe pool, Q2) (Healthy pigs n=9): 105 ± 8.0 μmol/kg BW | IC Phe release (fractional intracellular release to extracellular pool, k12) (Healthy pigs n=9): 5.09 ± 0.69 %/min | IC Phe uptake (fractional intracellular uptake from extracellular pool, k21) (Healthy pigs n=9): 11.5 ± 0.71 %/min | Irr. loss (irreversible loss of Phe from the intracellular pool, F02) (Healthy pigs n=9): 3.38 ± 0.10 μmol/kg BW/min | Q1 plasma pool size, mean value (Healthy pigs): 1121 µmol | k02 proportionality constant, mean value (Sepsis pigs): 0.028 min⁻¹ | k12 proportionality constant, mean value (Sepsis pigs): 0.044 min⁻¹ | k21 proportionality constant, mean value (Sepsis pigs): 0.105 min⁻¹ | EC Phe pool (extracellular Phe pool, Q1) (Sepsis pigs n=13): 63 ± 5.5 μmol/kg BW | Flux of Phe between intra- and extracellular pool (F12, F21) (Sepsis pigs n=13): 6.86 ± 0.42 μmol/kg BW/min | Frac. irr. loss (fractional irreversible loss of Phe from the intracellular pool, k02) (Sepsis pigs n=13): 2.83 ± 0.15 %/min | IC Phe pool (intracellular Phe pool, Q2) (Sepsis pigs n=13): 157 ± 8.2 μmol/kg BW | IC Phe release (fractional intracellular release to extracellular pool, k12) (Sepsis pigs n=13): 4.43 ± 0.25 %/min | IC Phe uptake (fractional intracellular uptake from extracellular pool, k21) (Sepsis pigs n=13): 10.6 ± 0.76 %/min | Irr. loss (irreversible loss of Phe from the intracellular pool, F02) (Sepsis pigs n=13): 4.33 ± 0.16 μmol/kg BW/min | Q1 plasma pool size, mean value (Sepsis pigs): 1655 µmol | intracellular pool relative to extracellular pool (pigs): 2.2 times
